{"source": "patent US20170333591A9", "about": "“ABSORBENT ARTICLE COMPRISING MALODOR REDUCTION COMPOSITIONS” (The Procter & Gamble Company, priority 2014, published 2017)", "data": [{"assay": "Log of liquid dish neat product liquid-air partition coefficient", "type": "physicochemical", "details": "not given", "values": [{"smiles": "CC1C(C)(C)C2CCC3CC(C)(C)OC3C2C1(C)C", "note": "(centres unmarked) [Material 679]", "Comment Code: Log of liquid dish neat product liquid-air partition coefficient": "K (Log of liquid dish neat product liquid-air partition coefficient greater than or equal to 7)"}, {"smiles": "CC1C(C)(C)C2CCC3CC(C)(C)OC3C2C1(C)C", "note": "(centres unmarked) [Material 680]", "Comment Code: Log of liquid dish neat product liquid-air partition coefficient": "K (Log of liquid dish neat product liquid-air partition coefficient greater than or equal to 7)"}, {"smiles": "CC(C)=C1CCC2=CC(=O)CC(C)C2(C)C1", "note": "(centres unmarked) [Material 684]", "Comment Code: Log of liquid dish neat product liquid-air partition coefficient": "K (Log of liquid dish neat product liquid-air partition coefficient greater than or equal to 7)"}, {"smiles": "CC(=O)OC(C)(C)C1CC=C(C)CC1", "note": "(centres unmarked) [Material 687]", "Comment Code: Log of liquid dish neat product liquid-air partition coefficient": "K (Log of liquid dish neat product liquid-air partition coefficient greater than or equal to 7)"}, {"smiles": "CC(=CCCC1(C)C2CC3C(C2)C31C)CO", "note": "(centres unmarked) [Material 694]", "Comment Code: Log of liquid dish neat product liquid-air partition coefficient": "K (Log of liquid dish neat product liquid-air partition coefficient greater than or equal to 7)"}, {"smiles": "CC(O)CCC1CCCCC1", "note": "(centres unmarked) [Material 699]", "Comment Code: Log of liquid dish neat product liquid-air partition coefficient": "K (Log of liquid dish neat product liquid-air partition coefficient greater than or equal to 7)"}, {"smiles": "CC(C=O)=Cc1ccccc1", "note": "[Material 701]", "Comment Code: Log of liquid dish neat product liquid-air partition coefficient": "K (Log of liquid dish neat product liquid-air partition coefficient greater than or equal to 7)"}, {"smiles": "CC(=O)C(C)=CC1C(C)=CCCC1(C)C", "note": "(centres unmarked) [Material 703]", "Comment Code: Log of liquid dish neat product liquid-air partition coefficient": "K (Log of liquid dish neat product liquid-air partition coefficient greater than or equal to 7)"}, {"smiles": "CC1=CCCC2(C)CCC(C(C)(C)O)CC12", "note": "(centres unmarked) [Material 712]", "Comment Code: Log of liquid dish neat product liquid-air partition coefficient": "K (Log of liquid dish neat product liquid-air partition coefficient greater than or equal to 7)"}, {"smiles": "CC1=CCCC2(C)CCC3CC12OC3(C)C", "note": "(centres unmarked) [Material 726]", "Comment Code: Log of liquid dish neat product liquid-air partition coefficient": "K (Log of liquid dish neat product liquid-air partition coefficient greater than or equal to 7)"}, {"smiles": "C=CCOC(=O)COc1ccccc1", "note": "[Material 743]", "Comment Code: Log of liquid dish neat product liquid-air partition coefficient": "K (Log of liquid dish neat product liquid-air partition coefficient greater than or equal to 7)"}, {"smiles": "C=CCOCCc1ccccc1", "note": "[Material 744]", "Comment Code: Log of liquid dish neat product liquid-air partition coefficient": "K (Log of liquid dish neat product liquid-air partition coefficient greater than or equal to 7)"}, {"smiles": "CCC(=O)N(CC)c1cccc(C)c1", "note": "[Material 755]", "Comment Code: Log of liquid dish neat product liquid-air partition coefficient": "K (Log of liquid dish neat product liquid-air partition coefficient greater than or equal to 7)"}, {"smiles": "COc1ccc(C(C)=O)cc1", "note": "[Material 761]", "Comment Code: Log of liquid dish neat product liquid-air partition coefficient": "K (Log of liquid dish neat product liquid-air partition coefficient greater than or equal to 7)"}, {"smiles": "CC1=CCCC2(C)CCC(C(C)(C)O)CC12", "note": "(centres unmarked) [Material 775]", "Comment Code: Log of liquid dish neat product liquid-air partition coefficient": "K (Log of liquid dish neat product liquid-air partition coefficient greater than or equal to 7)"}, {"smiles": "O=C1CCCC=CCCCCCCCCCC1", "note": "[Material 788]", "Comment Code: Log of liquid dish neat product liquid-air partition coefficient": "K (Log of liquid dish neat product liquid-air partition coefficient greater than or equal to 7)"}, {"smiles": "C=Cc1ccc(O)cc1", "note": "[Material 789]", "Comment Code: Log of liquid dish neat product liquid-air partition coefficient": "K (Log of liquid dish neat product liquid-air partition coefficient greater than or equal to 7)"}, {"smiles": "CCc1ccc(OC)c(O)c1", "note": "[Material 797]", "Comment Code: Log of liquid dish neat product liquid-air partition coefficient": "K (Log of liquid dish neat product liquid-air partition coefficient greater than or equal to 7)"}]}, {"assay": "Log of liquid dish neat product liquid-air partition coefficient", "type": "physicochemical", "details": "code letters K/L of the Comment Code", "values": [{"smiles": "CC1C(C)(C)C2CCC3CC(C)(C)OC3C2C1(C)C", "note": "(centres unmarked) [Material 679]", "Log of liquid dish neat product liquid-air partition coefficient (Comment Code)": "K (Log of liquid dish neat product liquid-air partition coefficient greater than or equal to 7)"}, {"smiles": "CC1C(C)(C)C2CCC3CC(C)(C)OC3C2C1(C)C", "note": "(centres unmarked) [Material 680]", "Log of liquid dish neat product liquid-air partition coefficient (Comment Code)": "K (Log of liquid dish neat product liquid-air partition coefficient greater than or equal to 7)"}, {"smiles": "CC(C)=C1CCC2=CC(=O)CC(C)C2(C)C1", "note": "(centres unmarked) [Material 684]", "Log of liquid dish neat product liquid-air partition coefficient (Comment Code)": "K (Log of liquid dish neat product liquid-air partition coefficient greater than or equal to 7)"}, {"smiles": "CCC(=O)OC(C)(C)C1CC=C(C)CC1", "note": "(centres unmarked) [Material 686]", "Log of liquid dish neat product liquid-air partition coefficient (Comment Code)": "K (Log of liquid dish neat product liquid-air partition coefficient greater than or equal to 7)"}, {"smiles": "C=CC(C)=CCC=C(C)CCC=C(C)C=O", "note": "[Material 691]", "Log of liquid dish neat product liquid-air partition coefficient (Comment Code)": "K (Log of liquid dish neat product liquid-air partition coefficient greater than or equal to 7)"}, {"smiles": "C=C(C)C1CCC2(C)CCC=C(C)C2C1", "note": "(centres unmarked) [Material 692]", "Log of liquid dish neat product liquid-air partition coefficient (Comment Code)": "K (Log of liquid dish neat product liquid-air partition coefficient greater than or equal to 7)"}, {"smiles": "CC(=CCCC1(C)C2CC3C(C2)C31C)CO", "note": "(centres unmarked) [Material 694]", "Log of liquid dish neat product liquid-air partition coefficient (Comment Code)": "K (Log of liquid dish neat product liquid-air partition coefficient greater than or equal to 7)"}, {"smiles": "C=CCCC(=O)C1=CCCC(C)(C)C1", "note": "[Material 697]", "Log of liquid dish neat product liquid-air partition coefficient (Comment Code)": "K (Log of liquid dish neat product liquid-air partition coefficient greater than or equal to 7)"}, {"smiles": "CCC(=O)C=CC1C(C)=CCCC1(C)C", "note": "(centres unmarked) [Material 700]", "Log of liquid dish neat product liquid-air partition coefficient (Comment Code)": "K (Log of liquid dish neat product liquid-air partition coefficient greater than or equal to 7)"}, {"smiles": "CC(=O)C=CC1C(C)=CCC(C)C1(C)C", "note": "(centres unmarked) [Material 704]", "Log of liquid dish neat product liquid-air partition coefficient (Comment Code)": "K (Log of liquid dish neat product liquid-air partition coefficient greater than or equal to 7)"}, {"smiles": "CC1=CCCC(C)=CCC(C)(C)C=CC1", "note": "[Material 706]", "Log of liquid dish neat product liquid-air partition coefficient (Comment Code)": "K (Log of liquid dish neat product liquid-air partition coefficient greater than or equal to 7)"}, {"smiles": "C=C1CCCC(C)(C)C2C=C(C)CCC12", "note": "(centres unmarked) [Material 707]", "Log of liquid dish neat product liquid-air partition coefficient (Comment Code)": "K (Log of liquid dish neat product liquid-air partition coefficient greater than or equal to 7)"}, {"smiles": "C=CC(C)=CCC=C(C)CCC=C(C)C", "note": "[Material 710]", "Log of liquid dish neat product liquid-air partition coefficient (Comment Code)": "K (Log of liquid dish neat product liquid-air partition coefficient greater than or equal to 7)"}, {"smiles": "CC1=CCCC2(C)CCC(C(C)(C)O)CC12", "note": "(centres unmarked) [Material 712]", "Log of liquid dish neat product liquid-air partition coefficient (Comment Code)": "K (Log of liquid dish neat product liquid-air partition coefficient greater than or equal to 7)"}, {"smiles": "CC(C)=CCCC(C)c1ccc(C)cc1", "note": "(centres unmarked) [Material 713]", "Log of liquid dish neat product liquid-air partition coefficient (Comment Code)": "K (Log of liquid dish neat product liquid-air partition coefficient greater than or equal to 7)"}, {"smiles": "CC1=CC2C(C(C)C)CCC(C)(O)C2CC1", "note": "(centres unmarked) [Material 716]", "Log of liquid dish neat product liquid-air partition coefficient (Comment Code)": "K (Log of liquid dish neat product liquid-air partition coefficient greater than or equal to 7)"}, {"smiles": "CC(C)=CCCC(C)(O)C1CC=C(C)CC1", "note": "(centres unmarked) [Material 718]", "Log of liquid dish neat product liquid-air partition coefficient (Comment Code)": "K (Log of liquid dish neat product liquid-air partition coefficient greater than or equal to 7)"}, {"smiles": "CC(C)=CCC=C(C)C1CC=C(C)CC1", "note": "(centres unmarked) [Material 719]", "Log of liquid dish neat product liquid-air partition coefficient (Comment Code)": "K (Log of liquid dish neat product liquid-air partition coefficient greater than or equal to 7)"}, {"smiles": "CC1=CCCC2(C)CCC3CC12OC3(C)C", "note": "(centres unmarked) [Material 726]", "Log of liquid dish neat product liquid-air partition coefficient (Comment Code)": "K (Log of liquid dish neat product liquid-air partition coefficient greater than or equal to 7)"}, {"smiles": "CC(C)=CCCC1=CCC(C)(C=O)CC1", "note": "(centres unmarked) [Material 727]", "Log of liquid dish neat product liquid-air partition coefficient (Comment Code)": "K (Log of liquid dish neat product liquid-air partition coefficient greater than or equal to 7)"}, {"smiles": "CCCC(O)Cc1ccccc1", "note": "(centres unmarked) [Material 730]", "Log of liquid dish neat product liquid-air partition coefficient (Comment Code)": "K (Log of liquid dish neat product liquid-air partition coefficient greater than or equal to 7)"}, {"smiles": "CCC(C)(O)CCc1ccccc1", "note": "(centres unmarked) [Material 731]", "Log of liquid dish neat product liquid-air partition coefficient (Comment Code)": "K (Log of liquid dish neat product liquid-air partition coefficient greater than or equal to 7)"}, {"smiles": "CC(C)CCCC(C)CCCC(C)C=O", "note": "(centres unmarked) [Material 741]", "Log of liquid dish neat product liquid-air partition coefficient (Comment Code)": "K (Log of liquid dish neat product liquid-air partition coefficient greater than or equal to 7)"}, {"smiles": "Cc1ccc(CC(C)C=O)cc1", "note": "(centres unmarked) [Material 742]", "Log of liquid dish neat product liquid-air partition coefficient (Comment Code)": "K (Log of liquid dish neat product liquid-air partition coefficient greater than or equal to 7)"}, {"smiles": "C=CCOC(=O)CCC1CCCCC1", "note": "[Material 746]", "Log of liquid dish neat product liquid-air partition coefficient (Comment Code)": "K (Log of liquid dish neat product liquid-air partition coefficient greater than or equal to 7)"}, {"smiles": "C=CCOC(=O)COCCC(C)C", "note": "[Material 748]", "Log of liquid dish neat product liquid-air partition coefficient (Comment Code)": "K (Log of liquid dish neat product liquid-air partition coefficient greater than or equal to 7)"}, {"smiles": "CC(C)=CCCC(C)CCCC(C)C=O", "note": "(centres unmarked) [Material 757]", "Log of liquid dish neat product liquid-air partition coefficient (Comment Code)": "K (Log of liquid dish neat product liquid-air partition coefficient greater than or equal to 7)"}, {"smiles": "CCCOC(C)OCCc1ccccc1", "note": "(centres unmarked) [Material 766]", "Log of liquid dish neat product liquid-air partition coefficient (Comment Code)": "K (Log of liquid dish neat product liquid-air partition coefficient greater than or equal to 7)"}, {"smiles": "COCCOC(C)OCc1ccccc1", "note": "(centres unmarked) [Material 768]", "Log of liquid dish neat product liquid-air partition coefficient (Comment Code)": "K (Log of liquid dish neat product liquid-air partition coefficient greater than or equal to 7)"}, {"smiles": "C=C(C)C1CCC2(C)CCC=C(C)C2C1", "note": "(centres unmarked) [Material 774]", "Log of liquid dish neat product liquid-air partition coefficient (Comment Code)": "K (Log of liquid dish neat product liquid-air partition coefficient greater than or equal to 7)"}, {"smiles": "CC1=CCCC2(C)CCC(C(C)(C)O)CC12", "note": "(centres unmarked) [Material 775]", "Log of liquid dish neat product liquid-air partition coefficient (Comment Code)": "K (Log of liquid dish neat product liquid-air partition coefficient greater than or equal to 7)"}, {"smiles": "CC(C)c1ccc2ncccc2c1", "note": "[Material 778]", "Log of liquid dish neat product liquid-air partition coefficient (Comment Code)": "K (Log of liquid dish neat product liquid-air partition coefficient greater than or equal to 7)"}, {"smiles": "CC1(C)C2CC=C(CCC=O)C1C2", "note": "(centres unmarked) [Material 781]", "Log of liquid dish neat product liquid-air partition coefficient (Comment Code)": "K (Log of liquid dish neat product liquid-air partition coefficient greater than or equal to 7)"}, {"smiles": "CC(=O)CCCC(C)CCCC(C)CCCC(C)C", "note": "(centres unmarked) [Material 782]", "Log of liquid dish neat product liquid-air partition coefficient (Comment Code)": "K (Log of liquid dish neat product liquid-air partition coefficient greater than or equal to 7)"}, {"smiles": "O=C1CCCC=CCCCCCCCCCC1", "note": "[Material 788]", "Log of liquid dish neat product liquid-air partition coefficient (Comment Code)": "K (Log of liquid dish neat product liquid-air partition coefficient greater than or equal to 7)"}, {"smiles": "CC1=CCC(O)(C(C)C)CC1", "note": "(centres unmarked) [Material 791]", "Log of liquid dish neat product liquid-air partition coefficient (Comment Code)": "K (Log of liquid dish neat product liquid-air partition coefficient greater than or equal to 7)"}, {"smiles": "C=CCCC(=O)c1ccccc1", "note": "[Material 792]", "Log of liquid dish neat product liquid-air partition coefficient (Comment Code)": "K (Log of liquid dish neat product liquid-air partition coefficient greater than or equal to 7)"}, {"smiles": "CC1=CCC(O)(C(C)C)CC1", "note": "(centres unmarked) [Material 800]", "Log of liquid dish neat product liquid-air partition coefficient (Comment Code)": "K (Log of liquid dish neat product liquid-air partition coefficient greater than or equal to 7)"}]}]}
